# PubChem BioAssay (NCI)
#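 Step 1: Grow cells in 96-well plates. Step 2: Expose to compound for 48 hours at 5 concentrations. Step 3: Interpolate endpoints linearly; if unreached, use highest concentration. TGI marks complete inhibition of growth.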
# Assays:
# Assay in all cases: DTP human tumour cell line panel, 48 h
# 786-0 renal = system: 786-0 renal
# A498 renal = system: A498 renal
# A549 NSCLC = system: A549 NSCLC
# ACHN renal = system: ACHN renal
# BT-549 breast = system: BT-549 breast
# CAKI-1 renal = system: CAKI-1 renal
# CCRF-CEM leukemia = system: CCRF-CEM leukemia
# COLO 205 colon = system: COLO 205 colon
# DU-145 prostate = system: DU-145 prostate
# EKVX NSCLC = system: EKVX NSCLC
# HCC-2998 colon = system: HCC-2998 colon
# HCT-116 colon = system: HCT-116 colon
# HCT-15 colon = system: HCT-15 colon
# HL-60(TB) leukemia = system: HL-60(TB) leukemia
# HOP-62 NSCLC = system: HOP-62 NSCLC
# HOP-92 NSCLC = system: HOP-92 NSCLC
# HS 578T breast = system: HS 578T breast
# HT29 colon = system: HT29 colon
# IGROV1 ovarian = system: IGROV1 ovarian
# K-562 leukemia = system: K-562 leukemia
# KM12 colon = system: KM12 colon
# LOX IMVI melanoma = system: LOX IMVI melanoma
# M14 melanoma = system: M14 melanoma
# MALME-3M melanoma = system: MALME-3M melanoma
# MCF7 breast = system: MCF7 breast
# MDA-MB-231 breast = system: MDA-MB-231 breast
# MDA-MB-435 = system: MDA-MB-435
# MDA-N = system: MDA-N
# MOLT-4 leukemia = system: MOLT-4 leukemia
# NCI-H226 lung = system: NCI-H226 lung
# NCI-H23 lung = system: NCI-H23 lung
# NCI-H460 lung = system: NCI-H460 lung
# NCI-H522 lung = system: NCI-H522 lung
# NCI/ADR-RES ovarian = system: NCI/ADR-RES ovarian
# OVCAR-3 ovarian = system: OVCAR-3 ovarian
# OVCAR-4 ovarian = system: OVCAR-4 ovarian
# OVCAR-5 ovarian = system: OVCAR-5 ovarian
# OVCAR-8 ovarian = system: OVCAR-8 ovarian
# PC-3 prostate = system: PC-3 prostate
# RPMI-8226 leukemia = system: RPMI-8226 leukemia
# SF-268 CNS = system: SF-268 CNS
# SF-295 CNS = system: SF-295 CNS
# SF-539 CNS = system: SF-539 CNS
# SK-MEL-2 melanoma = system: SK-MEL-2 melanoma
# SK-MEL-28 melanoma = system: SK-MEL-28 melanoma
# SK-MEL-5 melanoma = system: SK-MEL-5 melanoma
# SK-OV-3 ovarian = system: SK-OV-3 ovarian
# SN12C renal = system: SN12C renal
# SNB-19 CNS = system: SNB-19 CNS
# SNB-75 CNS = system: SNB-75 CNS
# SW-620 colon = system: SW-620 colon
# T-47D breast = system: T-47D breast
# TK-10 renal = system: TK-10 renal
# U251 CNS = system: U251 CNS
# UACC-257 melanoma = system: UACC-257 melanoma
# UACC-62 melanoma = system: UACC-62 melanoma
# UO-31 renal = system: UO-31 renal
structure (smiles),measurement,setting,value
Oc1cccc2c1[nH]c1c(C3=C[C@@]4(O)CC/C=C\CCCCN5CC[C@@H]3[C@]3(CC6/C=C\CCCCN6[C@H]34)C5)nccc12 (some centres undefined),TGI,786-0 renal,1.86 µM
same,TGI,A498 renal,7.65 µM
same,TGI,A549 NSCLC,4.39 µM
same,TGI,ACHN renal,4.1 µM
same,TGI,BT-549 breast,4.37 µM
same,TGI,CAKI-1 renal,4.43 µM
same,TGI,CCRF-CEM leukemia,4.04 µM
same,TGI,COLO 205 colon,3.71 µM
same,TGI,DU-145 prostate,4.64 µM
same,TGI,EKVX NSCLC,4.87 µM
same,TGI,HCC-2998 colon,1.87 µM
same,TGI,HCT-116 colon,2.74 µM
same,TGI,HCT-15 colon,1.86 µM
same,TGI,HL-60(TB) leukemia,2.59 µM
same,TGI,HOP-62 NSCLC,1.85 µM
same,TGI,HOP-92 NSCLC,1.3 µM
same,TGI,HS 578T breast,3.69 µM
same,TGI,HT29 colon,2.25 µM
same,TGI,IGROV1 ovarian,3.18 µM
same,TGI,K-562 leukemia,2.01 µM
same,TGI,KM12 colon,2.99 µM
same,TGI,LOX IMVI melanoma,2.04 µM
same,TGI,M14 melanoma,2.45 µM
same,TGI,MALME-3M melanoma,3.02 µM
same,TGI,MCF7 breast,1.77 µM
same,TGI,MDA-MB-231 breast,2.81 µM
same,TGI,MDA-MB-435,2.17 µM
same,TGI,MDA-N,2 µM
same,TGI,MOLT-4 leukemia,4.95 µM
same,TGI,NCI-H226 lung,5.17 µM
same,TGI,NCI-H23 lung,2.56 µM
same,TGI,NCI-H460 lung,2.19 µM
same,TGI,NCI-H522 lung,2.4 µM
same,TGI,NCI/ADR-RES ovarian,6.31 µM
same,TGI,OVCAR-3 ovarian,2.83 µM
same,TGI,OVCAR-4 ovarian,2.79 µM
same,TGI,OVCAR-5 ovarian,2.81 µM
same,TGI,OVCAR-8 ovarian,2.88 µM
same,TGI,PC-3 prostate,3.87 µM
same,TGI,RPMI-8226 leukemia,2.6 µM
same,TGI,SF-268 CNS,6.15 µM
same,TGI,SF-295 CNS,3.29 µM
same,TGI,SF-539 CNS,3.74 µM
same,TGI,SK-MEL-2 melanoma,2.97 µM
same,TGI,SK-MEL-28 melanoma,3.73 µM
same,TGI,SK-MEL-5 melanoma,2.96 µM
same,TGI,SK-OV-3 ovarian,5.15 µM
same,TGI,SN12C renal,2.49 µM
same,TGI,SNB-19 CNS,14.6 µM
same,TGI,SNB-75 CNS,3.86 µM
same,TGI,SW-620 colon,3.44 µM
same,TGI,T-47D breast,3.19 µM
same,TGI,TK-10 renal,5.56 µM
same,TGI,U251 CNS,2.79 µM
same,TGI,UACC-257 melanoma,5.79 µM
same,TGI,UACC-62 melanoma,3.26 µM
same,TGI,UO-31 renal,3.5 µM
O=C1C=C2CC[C@H]3[C@@H]4CC[C@H](OC(=O)c5cccc6cc7ccccc7nc56)[C@H]4CC[C@@H]3[C@H]2CC1,TGI,786-0 renal,> 100 µM
same,TGI,A498 renal,> 100 µM
same,TGI,A549 NSCLC,> 100 µM
same,TGI,ACHN renal,> 100 µM
same,TGI,BT-549 breast,> 100 µM
same,TGI,CCRF-CEM leukemia,> 100 µM
same,TGI,COLO 205 colon,> 100 µM
same,TGI,DU-145 prostate,> 100 µM
same,TGI,EKVX NSCLC,> 100 µM
same,TGI,HCT-116 colon,> 100 µM
same,TGI,HCT-15 colon,> 100 µM
same,TGI,HL-60(TB) leukemia,> 100 µM
same,TGI,HOP-62 NSCLC,> 100 µM
same,TGI,HS 578T breast,> 100 µM
same,TGI,HT29 colon,> 100 µM
same,TGI,IGROV1 ovarian,> 100 µM
same,TGI,K-562 leukemia,> 100 µM
same,TGI,KM12 colon,> 100 µM
same,TGI,LOX IMVI melanoma,29.7 µM
same,TGI,M14 melanoma,> 100 µM
same,TGI,MALME-3M melanoma,> 100 µM
same,TGI,MCF7 breast,> 100 µM
same,TGI,MDA-MB-231 breast,> 100 µM
same,TGI,MDA-MB-435,> 100 µM
same,TGI,MDA-N,> 100 µM
same,TGI,MOLT-4 leukemia,> 100 µM
same,TGI,NCI-H226 lung,> 100 µM
same,TGI,NCI-H23 lung,> 100 µM
same,TGI,NCI-H522 lung,69.2 µM
same,TGI,NCI/ADR-RES ovarian,> 100 µM
same,TGI,OVCAR-3 ovarian,> 100 µM
same,TGI,OVCAR-4 ovarian,> 100 µM
same,TGI,OVCAR-5 ovarian,> 100 µM
same,TGI,OVCAR-8 ovarian,> 100 µM
same,TGI,PC-3 prostate,> 100 µM
same,TGI,RPMI-8226 leukemia,> 100 µM
same,TGI,SF-268 CNS,> 100 µM
same,TGI,SF-295 CNS,> 100 µM
same,TGI,SF-539 CNS,> 100 µM
same,TGI,SK-MEL-2 melanoma,> 100 µM
same,TGI,SK-MEL-28 melanoma,> 100 µM
same,TGI,SK-MEL-5 melanoma,> 100 µM
same,TGI,SK-OV-3 ovarian,> 100 µM
same,TGI,SN12C renal,> 100 µM
same,TGI,SNB-19 CNS,> 100 µM
same,TGI,SNB-75 CNS,> 100 µM
same,TGI,SW-620 colon,> 100 µM
same,TGI,TK-10 renal,> 100 µM
same,TGI,U251 CNS,> 100 µM
same,TGI,UACC-257 melanoma,> 100 µM
same,TGI,UACC-62 melanoma,> 100 µM
same,TGI,UO-31 renal,> 100 µM
